Results: patent publication US5686460A, “Carbocyclic diarylmethylene derivatives, processes for their preparation and their uses in therapeutics” (Laboratoires UPSA, priority 1996, dated 1997)

Assays:
COX-2 = molecular target: T1, COX-2 (Ovis aries, UniProt P79208); test: Inhibition of the COX-2 enzymatic activity (PGE2 determined by EIA); format: biochemical, ewe; details: arachidonic acid 4 μM, mean±standard deviations of 4 determinations; for inhibition at 10 µM: 10^-5 M; for inhibition at 0.1 µM: 10^-7 M
T1 construct: purified enzyme from ewe placenta; from tissue; host or cells: ewe placenta
T1 sequence (P79208 17-603): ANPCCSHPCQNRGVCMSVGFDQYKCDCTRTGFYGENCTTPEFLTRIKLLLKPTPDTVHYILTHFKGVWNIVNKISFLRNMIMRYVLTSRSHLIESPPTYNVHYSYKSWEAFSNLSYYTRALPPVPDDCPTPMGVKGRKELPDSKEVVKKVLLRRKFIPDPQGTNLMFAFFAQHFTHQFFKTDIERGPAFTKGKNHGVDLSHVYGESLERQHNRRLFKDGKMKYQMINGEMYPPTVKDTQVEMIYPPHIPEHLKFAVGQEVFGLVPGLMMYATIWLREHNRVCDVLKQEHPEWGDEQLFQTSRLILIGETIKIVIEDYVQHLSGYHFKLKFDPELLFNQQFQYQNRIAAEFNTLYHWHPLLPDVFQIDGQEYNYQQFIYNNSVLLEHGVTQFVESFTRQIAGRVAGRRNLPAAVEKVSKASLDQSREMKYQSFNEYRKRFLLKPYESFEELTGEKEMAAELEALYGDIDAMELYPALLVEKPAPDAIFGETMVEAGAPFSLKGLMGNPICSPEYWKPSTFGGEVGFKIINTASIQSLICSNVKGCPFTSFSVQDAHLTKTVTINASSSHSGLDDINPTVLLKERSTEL
Description: (§1) Inhibition of the COX-1 and COX-2 enzymatic activities The molecule studied is preincubated for 10 minutes at 25° C. with 2 U of COX-1 (purified enzyme from ram seminal vesicles) or 1 U of COX-2 (purified enzyme from ewe placenta). Arachidonic acid (6 μM for COX-1, 4 μM for COX-2) is added to the reaction medium and incubation is carried out for 5 minutes at 25° C. When incubation has ended, the enzymatic reaction is stopped by the addition of 1N HCl and the PGE2 produced is determined by EIA. The results are expressed as the percentage inhibition of the COX-1 and COX-2 enzymatic activities and correspond to mean±standard deviations of the average of 4 determinations.

carrageenin edema = carrageenin edema test (anti-inflammatory activity); format: in vivo; details: rat, oral, 100 mg/kg, 3 hours, n=6 animals per dose
Description: (§2) The anti-inflammatory activity of the compounds of the Examples was evaluated by the carrageenin edema method and the analgesic activity was evaluated by the kaolin arthritis method.
Anti-inflammatory activity:
The anti-inflammatory activity is evaluated in the rat by the carrageenin edema test. The product is administered orally at a rate of 2.5 ml/100 g (n=6 animals per dose) 2 h 30 rain after oral hyperhydration (2.5 ml/100 g). One hour after administration of the product, the edema is induced by the plantar subcutaneous injection of 2% aqueous carrageenin solution. The percentage inhibition of the volume of the edema is calculated after 3 hours by measurement of the volume of the paw with a mercury plethysmograph.

kaolin arthritis = kaolin arthritis test (analgesic activity); format: in vivo; details: rat, oral, 100 mg/kg, 5 h 30 after administration, n=10 animals per dose
Description: as §2
The analgesic activity is evaluated in the rat by the kaolin arthritis test. Thirty minutes after the intra-articular administration of 10% aqueous kaolin suspension, the product is administered orally at a rate of 1 ml/100 g (n=10 animals per dose). The percentage inhibition of the animal's pain response (grading of the gait) is calculated 5 h 30 rain after administration of the product.

COX-1 = test: Inhibition of the COX-1 enzymatic activity (PGE2 determined by EIA); format: biochemical, ram; details: 10^-5 M; arachidonic acid 6 μM; mean±standard deviations of 4 determinations
Description: as §1

SMILES	inhibition at 10 µM (COX-2) [%]	inhibition at 0.1 µM (COX-2) [%]	Anti-inflammatory activity % inhibition (of the volume of the edema) (carrageenin edema) [%]	Analgesic activity % inhibition (of the animal's pain response, grading of the gait) (kaolin arthritis) [%]	% inhibition of the COX-1 activity (COX-1) [%]
CS(=O)(=O)c1ccc(C(=C2CCCC2)c2ccc(F)cc2)cc1 [Example 3, 4-[(Cyclopentylidene)(4-fluorophenyl)methyl]methylsulfonylbenzene]	66 ± 4	21 ± 4			
CS(=O)(=O)c1ccc(C(=C2CCCC2)c2ccc(Cl)nc2)cc1 [Example 6, 2-Chloro-5-[(cyclopentylidene)(4-methylsulfonylphenyl)methyl]-pyridine]	65 ± 2	18 ± 8	45.8 ± 9.8	55.0 ± 15.7	0 ± 0
CS(=O)(=O)c1ccc(C(=C2C=CC=C2)c2ccc(F)cc2)cc1 [Example 12, 4-[(Cyclopenta-2,4-dienylidene)(4-fluorophenyl)methyl]methyl-sulfonylbenzene]	57 ± 3				
